Assay results reported in patent publication US20110165115A1, “SYNERGISTIC ATTRACTANTS FOR PESTIFEROUS SOCIAL INSECTS” (STERLING INTERNATIONAL INC., priority 2010, published 2011).

System: V. consobrina
Assay: not given
Type: in vivo, Vespula consobrina
Details: Exp 1; HIPV added to WHY attractant in the top chamber, or WHY alone
Experimental: (§1) Three field trapping experiments were carried out during late July to early August 2009, in residential and woody areas around Spokane, Wash., USA, using the newly marketed Rescue® W•H•Y traps (www.rescue.com). As used herein, the W•H•Y trap is a trap in accordance with the description of United States Patent Application Publication No. 2009/0151228. The W•H•Y trap has a top chamber and a bottom chamber. The top chamber is baited with two attractants—one of which is a solid contained in a vial (2-methyl-1-butanol) and the other a liquid mixed with water (acetic acid), herein referred to as the W•H•Y top attractant. The bottom chamber is baited with a liquid attractant (heptyl butyrate) poured onto a cotton pad, herein referred to as the W•H•Y bottom attractant. Separation of the top and bottom attractants (otherwise antagonistic to each other when released from the same chamber) in two chambers was a design feature of this trap and creates two focal attraction sources from one trap for different species of wasps, hornets, and yellowjackets. Traps were hung 1.5-2.0 m above the ground on either the fence or tree branches ca. 5 m apart within each trap line. For each trapping experiment, six sets of traps were deployed with their initial trap positions within each set being randomized. To minimize positional effects and obtain more replications, wasp collections and trap re-randomization were carried out when ≧10-20 wasps were caught in the best trap. Each replicate lasted several days depending on wasp flight activity. Captured wasps were removed from the traps and kept in the zip-bags before taking back to the laboratory for recording of the species, gender status, and catch. […]
(§2) Trap catch data were converted to proportion (P) of total captured wasps within each replicate. Data were then transformed by arcsin√P to meet the assumptions of normality and homogeneity of variances for ANOVA. Means were compared by ANOVA followed by the Ryan-Einot-Gabriel-Welsh (REGW) multiple Q test (SPSS 16.0 for Windows) at α=0.05.

| SMILES | Total Yellowjacket Catches V. consobrina |
| --- | --- |
| C=C1CC/C=C(\C)CC[C@@H]2[C@@H]1CC2(C)C (relative stereo) [β-Caryophyllene, trans-β-caryophyllene] | 1 |
| C=CC(=C)CC/C=C(\C)CCC=C(C)C [E-β-Farnesene, trans-β-farnesene] | 0 |
| CC(=O)OC/C=C(\C)CCC=C(C)C [Geranyl Acetate, geranyl acetate] | 1 |

System: P. dominulus
Assay: Field trapping Experiment 1, Rescue W•H•Y traps
Type: in vivo, Polistes dominulus
Details: Exp 1; HIPV added to WHY attractant in the top chamber, or WHY alone
Experimental: (§3) Three field trapping experiments were carried out during late July to early August 2009, in residential and woody areas around Spokane, Wash., USA, using the newly marketed Rescue® W•H•Y traps (www.rescue.com). As used herein, the W•H•Y trap is a trap in accordance with the description of United States Patent Application Publication No. 2009/0151228. The W•H•Y trap has a top chamber and a bottom chamber. The top chamber is baited with two attractants—one of which is a solid contained in a vial (2-methyl-1-butanol) and the other a liquid mixed with water (acetic acid), herein referred to as the W•H•Y top attractant. The bottom chamber is baited with a liquid attractant (heptyl butyrate) poured onto a cotton pad, herein referred to as the W•H•Y bottom attractant. Separation of the top and bottom attractants (otherwise antagonistic to each other when released from the same chamber) in two chambers was a design feature of this trap and creates two focal attraction sources from one trap for different species of wasps, hornets, and yellowjackets. Traps were hung 1.5-2.0 m above the ground on either the fence or tree branches ca. 5 m apart within each trap line. For each trapping experiment, six sets of traps were deployed with their initial trap positions within each set being randomized. To minimize positional effects and obtain more replications, wasp collections and trap re-randomization were carried out when ≧10-20 wasps were caught in the best trap. Each replicate lasted several days depending on wasp flight activity. Captured wasps were removed from the traps and kept in the zip-bags before taking back to the laboratory for recording of the species, gender status, and catch.
(§4) Experiment 3 (Aug. 5-13, 2009) was conducted to determine the potential behavioral activity of different doses of (E)-4,8-dimethyl-1,3,7-nonatriene alone. The individual (or different doses) HIPVs were loaded into either polyethylene bags or centrifuge tube type of dispensers, and released from the top of the W•H•Y trap chamber. W•H•Y trap attractants (both top and bottom or top only) alone and water (top chamber only) were included in the test as positive and blank controls, respectively. The dispenser types, loading and release rates of the tested semiochemicals are described in Tables 1, 2 and 3.
as §2

| SMILES | Total Paper Wasps P. dominulus |
| --- | --- |
| C=C1CC/C=C(\C)CC[C@@H]2[C@@H]1CC2(C)C (relative stereo) [β-Caryophyllene, trans-β-caryophyllene] | 35 |
| C=CC(=C)CC/C=C(\C)CCC=C(C)C [E-β-Farnesene, trans-β-farnesene] | 29 |
| CC(=O)OC/C=C(\C)CCC=C(C)C [Geranyl Acetate, geranyl acetate] | 13 |

System: V. atropilosa
Assay: not given
Type: in vivo, Vespula atropilosa
Details: Exp 1; HIPV added to WHY attractant in the top chamber, or WHY alone

| SMILES | Total Yellowjacket Catches V. atropilosa |
| --- | --- |
| CC(=O)OC/C=C(\C)CCC=C(C)C [Geranyl Acetate, geranyl acetate] | 2 |

System: yellowjackets
Assay: Field trapping Experiment 1, top chamber catches
Type: in vivo
Details: Exp 1; HIPV combined with W•H•Y attractant (acetic acid and 2-methyl-1-butanol) in the top chamber
Experimental: as §3
Experiment 3 (Aug. 5-13, 2009) was conducted to determine the potential behavioral activity of different doses of (E)-4,8-dimethyl-1,3,7-nonatriene alone. The individual (or different doses) HIPVs were loaded into either polyethylene bags or centrifuge tube type of dispensers, and released from the top of the W•H•Y trap chamber. […]

| SMILES | effect on trap catches of yellowjackets in the top chambers |
| --- | --- |
| CC(=O)OC/C=C(\C)CCC=C(C)C [Geranyl Acetate, geranyl acetate] | inhibitory effect |

System: V. pensylvanica
Assay: Field trapping Experiment 1, Rescue W•H•Y traps
Type: in vivo, Vespula pensylvanica
Details: Exp 1; HIPV added to WHY attractant in the top chamber, or WHY alone
Experimental: as §3, §4, §2

| SMILES | Total Yellowjacket Catches V. pensylvanica |
| --- | --- |
| C=C1CC/C=C(\C)CC[C@@H]2[C@@H]1CC2(C)C (relative stereo) [β-Caryophyllene, trans-β-caryophyllene] | 234 |
| C=CC(=C)CC/C=C(\C)CCC=C(C)C [E-β-Farnesene, trans-β-farnesene] | 321 |
| CC(=O)OC/C=C(\C)CCC=C(C)C [Geranyl Acetate, geranyl acetate] | 128 |

System: P. dominulus workers antennae
Assay: GC-EAD of synthetic mixture of known HIPVs
Set-up: species or system Polistes dominulus
Details: 100 ng/μl each in hexane
Experimental: Aeration samples of the cherry branches (damaged or undamaged/slightly damaged) were injected (3 μl) splitless into a Varian CP-3800 GC equipped with a polar column (HP-INNOWax; 30 m×0.53 mm×1.0 μm film thickness; Agilent Technologies, Wilmington, Del., USA) and a 1:1 effluent splitter that allowed simultaneous flame ionization detection (FID) and electroantennographic detection (EAD) of the European paper wasp (Polistes dominulus) worker antennae to the separated volatile compounds. Helium was used as the carrier gas, and the injector and detector temperatures were 250° C. and 300° C., respectively. Column temperature was 50° C. for 1 min, rising to 240° C. at 10° C./min, and then held for 10 min. The outlet for the EAD was held in a humidified air stream flowing at 0.5 m/sec over the antennal preparation. EAD recordings were made using silver wire-glass capillary electrodes filled with Beadle-Ephrussi Ringer on freshly cut antennae. The antennal signals were stored and analyzed on a PC equipped with a serial IDAC interface box and the program EAD ver. 2.5 (Syntech, Hilversum, The Netherlands). In addition, GC-EAD responses to a synthetic mixture (100 ng/μl each) containing nine known HIPVs including cis-3-hexen-1-ol, cis-3-hexenyl acetate, trans-β-ocimene, (E)-4,8-dimethyl-1,3,7-nonatriene, linalool, methyl salicylate, geranyl acetate, trans-β-caryophyllene and trans-β-farnesene were tested on the P. dominulus workers. (See FIG. 2.) The same chemicals were also tested on beneficial insect antennae from Chrysopa oculata, Myrmeleon crudelis, Podisus maculiventris, and Hippodarnia convergens. (See FIG. 6.) Antennally active peaks in the aeration samples were identified by GC-MS on an HP 6890 GC series coupled with an HP 5973 Mass Selective Detector using the same type of GC column and conditions as described above. Compounds were identified by comparison of retention times with those of authentic standards and with mass spectra of standards.

| SMILES | EAD response of worker antennae |
| --- | --- |
| C=C1CC/C=C(\C)CC[C@@H]2[C@@H]1CC2(C)C (relative stereo) [β-Caryophyllene, trans-β-caryophyllene] | No repeatable EAD-responses |
| C=CC(=C)CC/C=C(\C)CCC=C(C)C [E-β-Farnesene, trans-β-farnesene] | No repeatable EAD-responses |
| CC(=O)OC/C=C(\C)CCC=C(C)C [Geranyl Acetate, geranyl acetate] | responded consistently |

System: D. arenaria
Assay: Field trapping Experiment 1, Rescue W•H•Y traps
Type: in vivo, Dolichovespula arenaria
Details: Exp 1; HIPV added to WHY attractant in the top chamber, or WHY alone
Experimental: as §3
(§5) Experiment 1 (Jul. 22-30, 2009) tested ten synthetic HIPV candidates [(E)-2-hexenal, (Z)-3-hexen-1-ol, (Z)-3-hexenyl acetate, cis-ocimene, linalool, methyl salicylate, geranyl acetate, trans-β-caryophyllene, trans-β-farnesene and (E)-4,8-dimethyl-1,3,7-nonatriene], including several paper wasp EAD-active compounds (see FIG. 2 for details), to determine their potential synergistic effect on the Rescue® W•H•Y trap attractants to paper wasps, yellowjackets, and hornets. Experiment 2 (Aug. 5-13, 2009) tested behavioral responses of the paper wasps and yellowjackets to the Rescue® W•H•Y trap attractants (top attractants only) and its combination with (E)-4,8-dimethyl-1,3,7-nonatriene, one of the EAD-active and behaviorally significant HIPVs, in a dose-response fashion. Experiment 3 (Aug. 5-13, 2009) was conducted to determine the potential behavioral activity of different doses of (E)-4,8-dimethyl-1,3,7-nonatriene alone. The individual (or different doses) HIPVs were loaded into either polyethylene bags or centrifuge tube type of dispensers, and released from the top of the W•H•Y trap chamber. W•H•Y trap attractants (both top and bottom or top only) alone and water (top chamber only) were included in the test as positive and blank controls, respectively. The dispenser types, loading and release rates of the tested semiochemicals are described in Tables 1, 2 and 3.
as §2

| SMILES | Total Yellowjacket Catches D. arenaria |
| --- | --- |
| C=C1CC/C=C(\C)CC[C@@H]2[C@@H]1CC2(C)C (relative stereo) [β-Caryophyllene, trans-β-caryophyllene] | 5 |
| C=CC(=C)CC/C=C(\C)CCC=C(C)C [E-β-Farnesene, trans-β-farnesene] | 10 |
| CC(=O)OC/C=C(\C)CCC=C(C)C [Geranyl Acetate, geranyl acetate] | 2 |

System: V. vulgaris
Assay: Field trapping Experiment 1, Rescue W•H•Y traps
Type: in vivo, Vespula vulgaris
Details: Exp 1; HIPV added to WHY attractant in the top chamber, or WHY alone
Experimental: as §3, §4, §2

| SMILES | Total Yellowjacket Catches V. vulgaris |
| --- | --- |
| C=C1CC/C=C(\C)CC[C@@H]2[C@@H]1CC2(C)C (relative stereo) [β-Caryophyllene, trans-β-caryophyllene] | 51 |
| C=CC(=C)CC/C=C(\C)CCC=C(C)C [E-β-Farnesene, trans-β-farnesene] | 36 |
| CC(=O)OC/C=C(\C)CCC=C(C)C [Geranyl Acetate, geranyl acetate] | 18 |

System: V. atropilosa
Assay: not given
Type: in vivo, Vespula atropilosa
Details: Exp 1; HIPV added to WHY attractant in the top chamber, or WHY alone
Remark: another data set of the same source
Experimental: as §1, §2

| SMILES | Total Yellowjacket Catches V. atropilosa |
| --- | --- |
| C=C1CC/C=C(\C)CC[C@@H]2[C@@H]1CC2(C)C (relative stereo) [β-Caryophyllene, trans-β-caryophyllene] | 1 |
| C=CC(=C)CC/C=C(\C)CCC=C(C)C [E-β-Farnesene, trans-β-farnesene] | 1 |

System: D. maculata
Assay: Field trapping Experiment 1, Rescue W•H•Y traps
Type: in vivo, Dolichovespula maculata
Details: Exp 1; HIPV added to WHY attractant in the top chamber, or WHY alone
Experimental: as §3, §5, §2

| SMILES | Total Yellowjacket Catches D. maculata |
| --- | --- |
| C=C1CC/C=C(\C)CC[C@@H]2[C@@H]1CC2(C)C (relative stereo) [β-Caryophyllene, trans-β-caryophyllene] | 0 |
| C=CC(=C)CC/C=C(\C)CCC=C(C)C [E-β-Farnesene, trans-β-farnesene] | 8 |
| CC(=O)OC/C=C(\C)CCC=C(C)C [Geranyl Acetate, geranyl acetate] | 1 |

System: V. acadica
Assay: Field trapping Experiment 1, Rescue W•H•Y traps
Type: in vivo, Vespula acadica
Details: Exp 1; HIPV added to WHY attractant in the top chamber, or WHY alone
Experimental: as §3, §4, §2

| SMILES | Total Yellowjacket Catches V. acadica |
| --- | --- |
| C=C1CC/C=C(\C)CC[C@@H]2[C@@H]1CC2(C)C (relative stereo) [β-Caryophyllene, trans-β-caryophyllene] | 2 |
| C=CC(=C)CC/C=C(\C)CCC=C(C)C [E-β-Farnesene, trans-β-farnesene] | 0 |
| CC(=O)OC/C=C(\C)CCC=C(C)C [Geranyl Acetate, geranyl acetate] | 0 |

System: P. aurifer
Assay: Field trapping Experiment 1, Rescue W•H•Y traps
Type: in vivo, Polistes aurifer
Details: Exp 1; HIPV added to WHY attractant in the top chamber, or WHY alone
Experimental: as §3, §4, §2

| SMILES | Total Paper Wasps P. aurifer |
| --- | --- |
| C=C1CC/C=C(\C)CC[C@@H]2[C@@H]1CC2(C)C (relative stereo) [β-Caryophyllene, trans-β-caryophyllene] | 12 |
| C=CC(=C)CC/C=C(\C)CCC=C(C)C [E-β-Farnesene, trans-β-farnesene] | 13 |
| CC(=O)OC/C=C(\C)CCC=C(C)C [Geranyl Acetate, geranyl acetate] | 4 |
